Numbered stars: 1 amine (or outer) side, 2 acyl side, 3 side chain; on linkers, the order of the positions; unused ones are H or OH. Square brackets hold non-standard residues; d marks the D form. Peptide text beside a SMILES is read from it. * marks the point of attachment. X2 = O=C(Cc1ccc(N[*:1])cc1)[*:2]; NH(2-Me-phenyl) = Cc1ccccc1N*; Piperidide = C1CCN(*)CC1; NHcHex = C1CCC(N*)CC1; CO = O=C([*:1])[*:2]; NHBn = c1ccc(CN*)cc1; NHPh = c1ccc(N*)cc1; X4 = c1ccc(N*)nc1
Target: T1, VLA4 (Homo sapiens, UniProt P05556+P13612)
T1 construct: endogenous in cells; host or cells: Ramos cells
T1 sequence (P13612 34-1032): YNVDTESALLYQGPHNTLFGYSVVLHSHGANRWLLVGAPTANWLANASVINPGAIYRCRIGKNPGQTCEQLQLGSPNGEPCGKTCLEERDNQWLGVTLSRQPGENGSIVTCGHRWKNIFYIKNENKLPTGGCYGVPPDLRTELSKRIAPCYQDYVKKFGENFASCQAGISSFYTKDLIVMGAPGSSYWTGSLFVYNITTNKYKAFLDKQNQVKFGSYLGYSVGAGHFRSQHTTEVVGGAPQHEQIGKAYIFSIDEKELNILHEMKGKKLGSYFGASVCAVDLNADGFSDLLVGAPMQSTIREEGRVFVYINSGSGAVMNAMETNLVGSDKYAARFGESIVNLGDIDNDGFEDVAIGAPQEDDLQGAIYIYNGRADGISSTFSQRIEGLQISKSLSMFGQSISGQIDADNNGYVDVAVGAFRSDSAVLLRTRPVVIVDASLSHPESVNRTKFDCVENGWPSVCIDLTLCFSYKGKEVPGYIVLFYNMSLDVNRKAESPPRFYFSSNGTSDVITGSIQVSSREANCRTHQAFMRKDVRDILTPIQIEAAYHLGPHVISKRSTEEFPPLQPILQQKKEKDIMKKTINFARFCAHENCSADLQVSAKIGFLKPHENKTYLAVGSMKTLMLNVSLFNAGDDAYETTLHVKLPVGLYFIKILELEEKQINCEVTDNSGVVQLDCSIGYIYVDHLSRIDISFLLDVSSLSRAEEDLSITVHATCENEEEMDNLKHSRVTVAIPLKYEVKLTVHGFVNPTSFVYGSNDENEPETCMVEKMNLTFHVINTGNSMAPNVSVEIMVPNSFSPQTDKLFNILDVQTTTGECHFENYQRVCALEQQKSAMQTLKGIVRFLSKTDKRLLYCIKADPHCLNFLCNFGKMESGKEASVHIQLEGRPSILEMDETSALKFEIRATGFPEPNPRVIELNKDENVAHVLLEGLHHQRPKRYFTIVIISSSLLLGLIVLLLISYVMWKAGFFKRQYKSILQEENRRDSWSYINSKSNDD
T1 sequence (P05556 21-798): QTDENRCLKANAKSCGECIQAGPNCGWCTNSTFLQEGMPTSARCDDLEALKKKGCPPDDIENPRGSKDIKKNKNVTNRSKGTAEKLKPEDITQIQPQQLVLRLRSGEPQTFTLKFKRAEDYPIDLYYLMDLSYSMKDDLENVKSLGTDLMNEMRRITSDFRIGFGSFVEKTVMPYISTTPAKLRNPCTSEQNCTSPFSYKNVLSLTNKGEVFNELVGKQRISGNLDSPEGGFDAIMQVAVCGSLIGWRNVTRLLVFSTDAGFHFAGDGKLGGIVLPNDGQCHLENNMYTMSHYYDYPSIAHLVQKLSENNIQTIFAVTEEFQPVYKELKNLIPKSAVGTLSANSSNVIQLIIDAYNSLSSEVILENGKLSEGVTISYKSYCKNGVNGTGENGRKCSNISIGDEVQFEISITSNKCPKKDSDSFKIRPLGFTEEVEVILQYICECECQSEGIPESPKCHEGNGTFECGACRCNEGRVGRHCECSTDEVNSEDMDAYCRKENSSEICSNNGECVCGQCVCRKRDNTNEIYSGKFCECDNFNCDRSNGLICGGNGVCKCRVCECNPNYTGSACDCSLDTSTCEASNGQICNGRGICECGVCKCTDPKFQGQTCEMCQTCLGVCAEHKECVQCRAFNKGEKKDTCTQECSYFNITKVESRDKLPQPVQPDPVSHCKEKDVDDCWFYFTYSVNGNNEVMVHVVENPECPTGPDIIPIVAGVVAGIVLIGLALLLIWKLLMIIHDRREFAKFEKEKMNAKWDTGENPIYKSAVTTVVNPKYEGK
Assay: Inhibition of VLA4-dependent adhesion of Ramos cells to BSA-CS1
Format: cell-based
Details: Ramos cells, BSA-CS1 coated wells, 2 mM MnCl2, 30 minutes at room temperature; read-out: IC50
Procedure, shortened: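 BCECF-AM-labelled Ramos cells in Tris buffer pH 7.4 with 2 mM MnCl2 were added with compound to wells coated with BSA-conjugated Cys-Tyr-CS1 peptide (1 μg/mL). Cells and compound were incubated for 30 min at room temperature, in triplicate. Inhibition was quantified from bound fluorescence against no-compound controls, with uncoated wells used for nonspecific binding.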

Row | Structure (SMILES) | IC50 [nM]
1 | CC[C@H](C)[C@H](NC(=O)Cc1ccc(NC(=O)Nc2ccccc2)cc1)C(=O)N[C@@H](CC(=O)O)C(=O)N[C@H](C(=O)N1CCC[C@H]1C(N)=O)C(C)C [Compound 209] ({NHPh-CO}-[X2]IDVP-NH2) | 50 to 10000
2 | CC(C)CC(NC(=O)Cc1ccc(NC(=O)Nc2ccccc2)cc1)C(=O)NC(CC(=O)O)C(=O)NC(C(=O)N1CCCC1C(N)=O)C(C)C (stereo not shown) [Compound 211] ({NHPh-CO}-[X2]LDVP-NH2; configuration not given here) | 50 to 10000
3 | CC(C)C[C@H](NC(=O)Cc1ccc(NC(=O)Nc2ccccc2)cc1)C(=O)N[C@@H](CC(=O)O)C(=O)NCc1ccccc1 [Compound 213] | 50 to 10000
4 | CC(C)C[C@H](NC(=O)Cc1ccc(NC(=O)Nc2ccccc2)cc1)C(=O)N[C@@H](CC(=O)O)C(=O)N1CCOCC1 [Compound 214] | 50 to 10000
5 | CC(C)C[C@H](NC(=O)Cc1ccc(NC(=O)Nc2ccccc2)cc1)C(=O)N[C@@H](CC(=O)O)C(=O)NC(C)C [Compound 215] | 50 to 10000
6 | CC(C)CC(NC(=O)Cc1ccc(NC(=O)Nc2ccccc2)cc1)C(=O)NC(CC(=O)O)C(=O)NC1CCCCC1 (stereo not shown) [Compound 216] | 50 to 10000
7 | CC(C)CNC(=O)[C@H](CC(=O)O)NC(=O)[C@H](CC(C)C)NC(=O)Cc1ccc(NC(=O)Nc2ccccc2)cc1 [Compound 217] | 50 to 10000
8 | CC(C)C[C@H](NC(=O)Cc1ccc(NC(=O)Nc2ccccc2)cc1)C(=O)N[C@@H](CC(=O)O)C(=O)N1CCCCC1 [Compound 218] | 50 to 10000
9 | CSCC[C@H](NC(=O)Cc1ccc(NC(=O)Nc2ccccc2C)cc1)C(=O)N[C@@H](CC(=O)O)C(=O)N[C@H](C(N)=O)C(C)C [Compound 221] | < 50
10 | CSCC[C@H](NC(=O)[C@H](CC(=O)O)NC(=O)[C@H](CCSC)NC(=O)Cc1ccc(NC(=O)Nc2ccccc2C)cc1)C(N)=O [Compound 225] | < 50
11 | Cc1ccccc1NC(=O)Nc1ccc(CC(=O)N[C@@H](CC(C)C)C(=O)N[C@@H](CC(=O)O)C(=O)N[C@H](C(N)=O)[C@@H](C)O)cc1 [Compound 235] | < 50
12 | Cc1ccccc1NC(=O)Nc1ccc(CC(=O)N[C@@H](CC(C)C)C(=O)N[C@@H](CC(=O)O)C(=O)N[C@@H](Cc2c[nH]c3ccccc23)C(N)=O)cc1 [Compound 239] | < 50
13 | CC[C@H](C)[C@H](NC(=O)[C@H](CC(=O)O)NC(=O)[C@@H]1CCCN1C(=O)Cc1ccc(NC(=O)Nc2ccccc2C)cc1)C(N)=O [Compound 244] | < 50
14 | CSCC[C@H](NC(=O)[C@H](CC(=O)O)NC(=O)[C@@H]1CCCN1C(=O)Cc1ccc(NC(=O)Nc2ccccc2C)cc1)C(N)=O [Compound 247] | < 50
15 | Cc1ccccc1NC(=O)Nc1ccc(CC(=O)N[C@H](C(=O)N[C@@H](CC(=O)O)C(=O)N[C@@H](CC(=O)O)C(N)=O)[C@@H](C)O)cc1 [Compound 252] | < 50
16 | Cc1ccccc1NC(=O)Nc1ccc(CC(=O)N[C@H](C(=O)N[C@@H](CC(=O)O)C(=O)N[C@@H](CC(C)C)C(N)=O)[C@@H](C)O)cc1 [Compound 253] | < 50
17 | CC[C@H](C)[C@H](NC(=O)[C@H](CC(=O)O)NC(=O)[C@@H](NC(=O)Cc1ccc(NC(=O)Nc2ccccc2C)cc1)[C@@H](C)O)C(N)=O [Compound 255] | < 50
18 | Cc1ccccc1NC(=O)Nc1ccc(CC(=O)N[C@@H](CCC(=O)O)C(=O)N[C@@H](CC(=O)O)C(=O)N[C@@H](CC(=O)O)C(N)=O)cc1 [Compound 263] | < 50
19 | Cc1ccccc1NC(=O)Nc1ccc(CC(=O)N[C@@H](CO)C(=O)N[C@@H](CC(=O)O)C(=O)N[C@@H](CC(C)C)C(N)=O)cc1 [Compound 276] | < 50

Row | Structure (SMILES) | IC50 [nM]
20 | Cc1ccccc1NC(=O)Nc1ccc(CC(=O)N[C@@H](CO)C(=O)N[C@@H](CC(=O)O)C(=O)N[C@@H](CCC(=O)O)C(N)=O)cc1 [Compound 279] | < 50
21 | CC[C@H](C)[C@H](NC(=O)Cc1ccc(NC(=O)Nc2ccccc2C)cc1)C(=O)N[C@@H](CC(=O)O)C(=O)N[C@@H](CC(=O)O)C(N)=O [Compound 286] | < 50
22 | CC[C@H](C)[C@H](NC(=O)Cc1ccc(NC(=O)Nc2ccccc2C)cc1)C(=O)N[C@@H](CC(=O)O)C(=O)N[C@@H](CCC(=O)O)C(N)=O [Compound 290] | < 50
23 | CC[C@H](C)[C@H](NC(=O)[C@H](CC(=O)O)NC(=O)[C@H](CCC(N)=O)NC(=O)Cc1ccc(NC(=O)Nc2ccccc2C)cc1)C(N)=O [Compound 300] | < 50
24 | CSCC[C@H](NC(=O)[C@H](CC(=O)O)NC(=O)[C@H](CCC(N)=O)NC(=O)Cc1ccc(NC(=O)Nc2ccccc2C)cc1)C(N)=O [Compound 303] | < 50
25 | Cc1ccccc1NC(=O)Nc1ccc(CC(=O)N[C@@H](CC(C)C)C(=O)N[C@@H](CCC(=O)O)C(=O)N[C@@H](CC(=O)O)C(N)=O)cc1 [Compound 310] | < 50
26 | Cc1ccccc1NC(=O)Nc1ccc(CC(=O)N[C@@H](CC(C)C)C(=O)N[C@@H](CCC(=O)O)C(=O)N[C@H](C(N)=O)C(C)C)cc1 [Compound 311] | < 50
27 | Cc1ccccc1NC(=O)Nc1ccc(CC(=O)N2CCC[C@H]2C(=O)N[C@@H](CCC(=O)O)C(=O)N[C@H](C(N)=O)C(C)C)cc1 [Compound 313] | < 50
28 | CSCC[C@H](NC(=O)Cc1ccc(NC(=O)Nc2ccccc2C)cc1)C(=O)N[C@@H](CC(=O)O)C(=O)N[C@H](C(=O)N1CCC[C@H]1C(=O)O)C(C)C [Compound 315] ({NH(2-Me-phenyl)-CO}-[X2]MDVP-OH) | < 50
29 | CC(C)C[C@H](NC(=O)Cc1ccc(NC(=O)Nc2ccccn2)cc1)C(=O)N[C@@H](CC(=O)O)C(=O)N[C@H](C(=O)N1CCC[C@H]1C(=O)O)C(C)C [Compound 316] ({X4-CO}-[X2]LDVP-OH) | < 50
30 | CC(C)C[C@H](NC(=O)Cc1ccc(NC(=O)Nc2ccccc2)cc1)C(=O)N[C@@H](CC(=O)O)C(=O)N[C@H](C(=O)N1CCOCC1)C(C)C [Compound 318] | < 50
31 | CC(C)C[C@H](NC(=O)Cc1ccc(NC(=O)Nc2ccccc2)cc1)C(=O)N[C@@H](CC(=O)O)C(=O)N[C@H](C(=O)NC(C)C)C(C)C [Compound 319] | 50 to 10000
32 | CC(C)C[C@H](NC(=O)Cc1ccc(NC(=O)Nc2ccccc2)cc1)C(=O)N[C@@H](CC(=O)O)C(=O)N[C@H](C(=O)NC1CCCCC1)C(C)C [Compound 320] | 50 to 10000
33 | CC(C)C[C@H](NC(=O)Cc1ccc(NC(=O)Nc2ccccc2)cc1)C(=O)N[C@@H](CC(=O)O)C(=O)N[C@H](C(=O)NCc1ccccc1)C(C)C [Compound 321] | 50 to 10000
34 | CC(C)C[C@H](NC(=O)Cc1ccc(NC(=O)Nc2ccccc2)cc1)C(=O)N[C@@H](CC(=O)O)C(=O)N[C@H](C(=O)N1CCCCC1)C(C)C [Compound 322] | < 50
35 | CC(C)C[C@H](NC(=O)Cc1ccc(NC(=O)Nc2ccccc2)cc1)C(=O)N[C@@H](CC(=O)O)C(=O)N[C@H](C(=O)N1CCC[C@H]1C(=O)NC1CCCCC1)C(C)C [Compound 324] ({NHPh-CO}-[X2]LDVP-NHcHex) | 50 to 10000
36 | CC(C)C[C@H](NC(=O)Cc1ccc(NC(=O)Nc2ccccc2)cc1)C(=O)N[C@@H](CC(=O)O)C(=O)N[C@H](C(=O)N1CCC[C@H]1C(=O)N1CCCCC1)C(C)C [Compound 325] ({NHPh-CO}-[X2]LDVP-Piperidide) | 50 to 10000
37 | CC(C)C[C@H](NC(=O)Cc1ccc(NC(=O)Nc2ccccc2)cc1)C(=O)N[C@@H](CC(=O)O)C(=O)N[C@H](C(=O)N1CCC[C@H]1C(=O)NCc1ccccc1)C(C)C [Compound 326] ({NHPh-CO}-[X2]LDVP-NHBn) | < 50

Source: patent US6596687B1, “Cell adhesion inhibitors” (Biogen, Inc., priority 1995, dated 2003)
